Assay results published in patent US20120149741A1, “TREATMENT OF DUCHENNE MUSCULAR DYSTROPHY” (Biomarin IGA Limited, priority 2007, published 2012).

test system: Utrophin A promoter linked to a luciferase reporter gene in mdx mouse H2K cells; assay: Luciferase reporter assay (murine H2K cells); type: cell-based; conditions: luciferase level, H2K/mdx/Utro A reporter cells, final concentration of 10 μM, 48 hrs
Protocol: The cell line used for the screen is an immortalized mdx mouse H2K cell line that has been stably transfected with a plasmid containing fragment of the Utrophin A promoter including the first untranslated exon linked to a luciferase reporter gene (see FIG. 1).
Under conditions of low temperature and interferon containing media, the cells remain as myoblasts. These are plated into 96 well plates and cultured in the presence of compound for three days. The level of luciferase is then determined by cell lysis and reading of the light output from the expressed luciferase gene utilising a plate luminometer.
The H2K/mdx/Utro A reporter cell line was passaged twice a week until ≦30% confluent. The cells were grown at 33° C. in the presence of 10% CO2.
To remove the myoblasts for platting, they were incubated with Trypsin/EDTA until the monolayer started to detach.
• DMEM Gibco 41966 • 20% FCS • 1% Pen/Strep • 1% glutamine • 10 mls Chick embryo extract • Interferon (1276 905 Roche) Add fresh 10 μl/50 mls medium
The H2K/mdx/Utro A reporter cell line cells were plated out into 96 well plates (Falcon 353296, white opaque) at a density of approximately 5000 cells/well in 190 μl normal growth medium. The plates were then incubated at 33° C. in the presence of 10% CO2 for 24 hrs.
Compounds were dosed by adding 10 μl of diluted compound to each well giving a final concentration of 10 μM. The plates were then incubated for a further 48 hrs.
Cells were then lysed in situ following the manufacture's protocols (Promega Steady-Glo Luciferase Assay System (E2520), then counted for 10 seconds using a plate luminometer (Victor1420).
Compounds for screening were stored at −20° C. as 10 mM stocks in 100% DMSO until required.

CC(C)C(=O)Nc1ccc2cnn(-c3ccc4ccccc4c3)c2c1 [Example 1, N-(1-(naphthalen-2-yl)-1H-indazol-6-yl)isobutyramide] was tested. Which Activity did it give?
The Activity was “+ (Up to 200% relative to control)”.

How did the Activity turn out when CC(C)C(=O)Nc1ccc2cn(-c3ccc4ccccc4c3)nc2c1 [Example 2, N-(2-(naphthalen-2-yl)-2H-indazol-6-yl)isobutyramide] was run?
The Activity was “++++ (Above 401% relative to control)”.

With CCS(=O)(=O)c1ccc2cn(-c3ccc(Cl)cc3)nc2c1 [Example 3, 2-(4-chlorophenyl)-6-(ethylsulfonyl)-2H-indazole] as the molecule, how does the Activity read?
Its Activity is “++ (Between 201% and 300% relative to control)”.

With CCS(=O)(=O)c1ccc2nn(-c3ccc4ccccc4c3)nc2c1 [Example 4, 5-(ethylsulfonyl)-2-(naphthalen-2′-yl)-2H-benzo[d][1,2,3]triazole] as the molecule, how does the Activity read?
The Activity was “++ (Between 201% and 300% relative to control)”.
